Results taken from PubChem BioAssay (NCI).
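Five compound concentrations were applied to cells in 96-well plates for 48 hours; endpoints were derived by simple linear interpolation of the resulting dose-response curve. GI50: concentration for 50% inhibition of growth. At the TGI there is no net growth.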

Assays:
Experiment in all cases: DTP human tumour cell line panel, 48 h
[1] = system: HOP-92 NSCLC
[2] = system: HT29 colon
[3] = system: MDA-MB-231 breast
[4] = system: NCI-H226 lung
[5] = system: NCI-H522 lung
[6] = system: OVCAR-4 ovarian
[7] = system: PC-3 prostate
[8] = system: SF-295 CNS
[9] = system: SR leukemia
[10] = system: UACC-62 melanoma

Compound	GI50 [1]	TGI [1]	GI50 [2]	TGI [2]	GI50 [3]	TGI [3]	GI50 [4]	TGI [4]	GI50 [5]	TGI [5]	GI50 [6]	TGI [6]	GI50 [7]	TGI [7]	GI50 [8]	TGI [8]	TGI [9]	GI50 [10]	TGI [10]	GI50 [9]
O=C1c2cccnc2-c2nc(-c3ccccn3)cc3c2c1nc1ccccc13	241 nM	0.729 µM	0.85 µM	2.95 µM	0.185 µM	0.5 µM	936 nM	2.89 µM	141 nM	0.32 µM	69.9 nM	0.26 µM	557 nM	1.85 µM	423 nM	1.7 µM	25.3 µM	191 nM	0.63 µM	
COc1ccc(/C=C/C(=O)/C=C(/C=C/c2ccc(OC)c(OC)c2)OB(F)F)cc1OC	1710 nM	4.89 µM	1.03 µM	4.95 µM	0.621 µM	4.08 µM	2000 nM	6.88 µM	291 nM	1.45 µM	1860 nM	> 100 µM	1050 nM	7.51 µM	1890 nM	4.87 µM	1.69 µM	574 nM	2.16 µM	0.287 µM
COc1cccc(-c2nc(-c3ccc(NS(=O)(=O)c4ccccc4)cc3)[nH]c2-c2ccnc(Br)c2)c1	2460 nM	6.54 µM	3.02 µM	> 100 µM	3.23 µM	45.8 µM	2910 nM	> 100 µM	2930 nM	> 100 µM	3840 nM	> 100 µM	2390 nM	16.9 µM	1850 nM	4.35 µM	> 100 µM	2580 nM	8.56 µM	2.85 µM
C[C@@H](Oc1cc(-c2cnn(C3CCNCC3)c2)cnc1N)c1c(Cl)ccc(F)c1Cl	236 nM	2.62 µM	0.437 µM	2.31 µM	1.17 µM	6.5 µM	701 nM	> 10 µM	1300 nM	3.2 µM		> 10 µM	1350 nM	> 10 µM	276 nM	> 10 µM	1.09 µM	1540 nM	4.66 µM	0.0453 µM
CC(C)SC1SCC2C(=O)N(C)C3(CC3C)C(=O)OCC(NC(=O)c3nc4ccccc4cc3O)C(=O)NC(C)C(=O)N(C)C1C(=O)N(C)C1(CC1C)C(=O)OCC(NC(=O)c1nc3ccccc3cc1O)C(=O)NC(C)C(=O)N2C (stereo not drawn)		< 0.0001 µM		2.88 µM		> 100 µM		< 0.0001 µM		< 0.0001 µM		< 0.0001 µM		< 0.0001 µM		0.00809 µM	< 0.0001 µM		< 0.0001 µM	
OCc1ccc(N(Cc2ccc(F)cc2)C2CCC2)cc1Cl	300 nM	6.69 µM	3.89 µM	15.3 µM	14.9 µM	28.6 µM	56.9 nM	0.193 µM	13000 nM	28.6 µM	207 nM	2.69 µM	11900 nM	24.8 µM	437 nM	12.9 µM	35 µM	124 nM	0.846 µM	15.3 µM
C=C1C(=O)OC2C1C(OC(=O)/C(C)=C/C)CC(O)(CCl)C1C(OC(C)=O)C=C(C)C21O (stereo not drawn)		27.9 µM		31.9 µM		38.1 µM		> 61.3 µM		5.94 µM		33.5 µM		30.8 µM		> 100 µM	26.1 µM		29.3 µM	
COc1ccc(-n2c(-c3ccc(NC(=O)CCCl)cc3)nnc2-c2cc(OC)c(OC)c(OC)c2)cc1	4100 nM	> 14.3 µM	3.03 µM	11.2 µM	3.56 µM	> 14.3 µM	10800 nM	> 14.3 µM	4140 nM	> 14.3 µM	4100 nM	> 14.3 µM	4450 nM	> 14.3 µM	5020 nM	> 14.3 µM	12.7 µM	2540 nM	6.92 µM	3.12 µM
O=C(CSc1nc2ccc([N+](=O)[O-])cc2[nH]1)Nc1cccc(C(F)(F)F)c1	300 nM	2.82 µM	2.78 µM	11.3 µM	2.13 µM	6.65 µM	1690 nM	9.27 µM	1550 nM	9.05 µM	1610 nM	14.5 µM	2470 nM	11.9 µM	1730 nM	5.65 µM	> 43.7 µM	1100 nM	8.85 µM	3.02 µM
O=C(Nc1cccc(NS(=O)(=O)c2ccc(F)cc2)c1)c1ccc(-c2ccccc2)cc1	1930 nM	8.22 µM	4.85 µM	18.6 µM	3.61 µM	18 µM	3220 nM	24.3 µM	2500 nM	13 µM	3720 nM	> 100 µM	2810 nM	32.6 µM	2340 nM	11.8 µM	10.1 µM	1630 nM	6.68 µM	2.51 µM
O=C(O)CSCC(=O)c1ccccc1		> 100 µM		> 100 µM		> 100 µM		> 100 µM		> 100 µM		> 100 µM		> 100 µM		> 100 µM	> 100 µM		> 100 µM	
CCN(Cc1ccc(F)cc1F)c1ccc(CO)c(Cl)c1	1180 nM	16.5 µM	5.65 µM	30.4 µM	12.1 µM	25.5 µM	94.5 nM	0.219 µM	14800 nM	37.6 µM	218 nM	1.65 µM	16300 nM	49.2 µM	513 nM	14.7 µM	82.1 µM	98.1 nM	0.581 µM	23.2 µM
COc1c(O)cc2oc3cc(O)c(CC=C(C)C)c(O)c3c(=O)c2c1C/C=C(\C)CCC=C(C)C	6520 nM	11.5 µM	6.34 µM	12.4 µM	5.61 µM	11.2 µM	6180 nM	11.2 µM	5920 nM	10.8 µM	5410 nM	9.84 µM	5550 nM	11.2 µM	4880 nM	9.6 µM	13.2 µM	5510 nM	11.3 µM	5.45 µM
